Structures can show the parent of a compound that is named as a salt.
What was measured:
[1] = PDR 1997 p. 564; cited from earlier work
[2] = 5 and 10 ml of water
[3] = Blood pressure / hemodynamic monitoring after urethral suppository (Example 1); conditions: rabbit, urethral suppository approx. 100 mg lidocaine

Row | SMILES | maximum recommended adult dose [1] | effect of fluid volume on pH of lidocaine/sodium bicarbonate [2] | hemodynamic changes [3]
1 | CCN(CC)CC(=O)Nc1c(C)cccc1C [lidocaine hydrochloride] | 4.5 mg/kg | – | –
2 | CCN(CC)CC(=O)Nc1c(C)cccc1C [lidocaine] | – | does not appear to have a major effect | No significant hemodynamic changes

Source: patent publication US8741330B2, “Transluminal drug delivery methods and devices” (priority 2006, dated 2014)
